# Source: publication PMC7524759, “Solution structure of the Hop TPR2A domain and investigation of target druggability by NMR, biochemical and in silico approaches” (Scientific Reports, 2020)
# “Also recorded” adds a separate entry of the source. Like-named read-outs stand apart in the source and are kept apart here.
# Legend:
# [1] = biological target: T1, Hop TPR2A-Hsp90 MEEVD interaction (Homo sapiens, UniProt P31948); assay: LANCE (TR-FRET) proximity assay of Hop TPR2A binding to biotin-Hsp90 MEEVD peptide; conditions: for LE (ligand efficiency): approximated from LANCE IC50 values using number of heavy atoms
# T1 construct: The TPR2A domain of human Hop, residues 218-350, was cloned from full-length Hop cDNA; made in house; host or cells: Escherichia coli BL21 (DE3) pLysS
# T1 sequence (P31948 218-350): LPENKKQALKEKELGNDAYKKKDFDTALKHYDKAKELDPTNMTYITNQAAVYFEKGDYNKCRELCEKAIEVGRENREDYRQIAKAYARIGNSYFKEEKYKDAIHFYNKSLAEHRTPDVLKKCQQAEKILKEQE
# Protocol: Compounds containing succinic acid substructures were therefore selected to mimic the natural carboxylate clamp interaction between the Hsp90 C-terminus and TPR cochaperones. […] In this assay, compounds that block the protein-peptide interaction cause a loss in fluorescent signal.
# The labelling reagents used were Surelight APC-SA and LANCE Eu-1024 Anti-6xHis (both PerkinElmer). Assays were performed in black low volume 384-well plates (Corning) with a total volume of 20 μl per well in assay buffer of 20 mM HEPES pH 7.4, 100 mM NaCl, 1 mM DTT, 0.1% Tween-20. […] Compound stocks to be screened were individually corrected to approximately neutral pH due to their highly acidic nature and dispensed using a Labcyte Echo acoustic dispenser.
# Raw fluorescence or luminescence values from compound screening were converted to % inhibition of the total assay signal. IC50 values were determined by plotting % inhibition against the log10 of inhibitor concentration and fitted using a variable slope, four-parameter concentration–response curve using a robust fit in GraphPad Prism. […] To generate IC50 values, assays were repeated independently 3 times with duplicate or triplicate wells for each run. […] Ligand efficiency (LE) was approximated from LANCE biochemical IC50 values using the number of heavy atoms (HA)[67].
# [2] = biological target: T2, Hop TPR2A (Homo sapiens, UniProt P31948); assay: NMR 1H-15N HSQC chemical shift perturbation (CSP) titration; type: binding; conditions: for Kd: Mean ± S.D. for 10 fitted residues
# T2 construct: The TPR2A domain of human Hop, residues 218-350, was cloned from full-length Hop cDNA; 6xHis (N, cleaved yes); made in house; host or cells: Escherichia coli BL21 (DE3) pLysS
# T2 sequence (P31948 218-350): as above
# Protocol: Chemical shift perturbation (CSP) experiments were carried out on protein and compound mixtures to characterise protein–ligand interactions. ^1H-^15N HSQC spectra were collected on 200 μl samples in 20 mM Na2HPO4 pH 6.5, 50 mM NaCl, 1 mM DTT with 10% D2O in 3 mm NMR tubes (GPE Scientific). […] Each sample was prepared with 100 μM protein while compound or peptide concentration varied according to the experiment. Where possible, compound or peptide stocks were made up in NMR buffer to minimise buffer effects on the spectra. Compounds were otherwise diluted from DMSO stocks maintaining a maximum final DMSO concentration of 3% v/v. HSQC spectra of the protein with DMSO in the buffer were collected as controls. ^1H–^15N HSQC spectra were collected using standard pulse sequences.
# Changes in chemical shifts (∆δ) were calculated for each backbone assigned N–H peak using a weighted CSP[70]. In order to visualise the locations of the largest shifts the ∆δ values were edited into a Hop TPR2A PDB file (in place of B-factors) and represented as surface heat maps in PyMol. Kd values from CSP titrations were calculated from HSQC spectra collected at a series of increasing compound concentrations[58], plots are representative of one titration for several different residues.
# Chemical shift perturbation (CSP) experiments and Kd determination
# Changes in chemical shifts were determined by tracking ligand shifted HSQC peaks in
# NMRView and exporting the resultant peak lists to Excel. In Excel, using appropriate lists of
# control peaks the change in chemical shift (Dd) was calculated for each backbone assigned
# N-H peak using Equation S1.
# (Equation S1) Δδ = %Δ𝛿!! + (0.2Δ𝛿#) -
# Where Δ𝛿!! is the change in proton chemical shift, and Δ𝛿# is the change in nitrogen chemical
# shift. Using a scaling factor (0.2) normalises the difference in magnitude of chemical shifts at
# these two nuclei, various scaling factors are used in the literature and a value of 0.2 has been
# To estimate Kd values from CSP titrations HSQC spectra were collected at a series of
# increasing compound concentrations, peak lists for each concentration were generated and
# exported to Excel. Then using GraphPad Prism the Dd values for each concentration were
# fitted by non-linear regression to Equation S2, taken from Fielding 2007 equation 16 (see also
# Williamson 2013 equation 6 for the derivation).
# (Equation S2) Δ𝛿 = Δ𝛿&’( "[0]
# In which Δ𝛿 is the adjusted chemical shift change, Δ𝛿&’( is the chemical shift change at
# saturation, [𝑃]7 the total protein concentration, 𝐾8 the equilibrium dissociation constant, and
# [𝐿]7the total ligand concentration. Here the Δ𝛿&’( was taken to be the observed Δ𝛿 at the
# highest [𝐿]7. Except in cases where this was clearly far from saturation, when this variable
# was not constrained during the curve fit.
# Determining dissociation constants using CSP titrations requires that the experimental [P] is
# high enough that the signal to noise of the experiment is sufficient while falling into a suitable
# range for accurate curve fitting using equation S2.
# [3] = tested on: FLAG-tagged Hsp90 complexes (TPR cochaperone association) from HCT116 cells; assay: FLAG co-immunoprecipitation Western blot of Hsp90 complexes; type: biochemical, human
# [4] = biological target: Hsp90 (Homo sapiens); assay: ITC; conditions: cited from earlier work
# [5] = n = 3 independent experiments, duplicate wells, Mean ± S.D.
# Hop TPR2A (from UniProt P31948), sequence (P31948 223-352): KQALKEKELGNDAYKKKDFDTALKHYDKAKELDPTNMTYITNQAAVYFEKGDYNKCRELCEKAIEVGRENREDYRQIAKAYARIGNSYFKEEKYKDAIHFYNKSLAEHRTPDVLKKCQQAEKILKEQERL
Compound,LE (ligand efficiency) [1],"IC50 [1, 5] [µM]",Kd [2] [µM],other results
"O=C(O)CCC(=O)O [Compound 1, succinic acid]",0.42,3960,,IC50 [1]: ~4000 µM
O=C(O)/C=C\C(=O)O [Compound 2],0.47,2170,,
COc1ccc(C2c3[nH]c4ccccc4c3CC3C(=O)N(c4ccccc4C(=O)NC(CC(=O)O)C(=O)O)C(=O)N32)cc1 (stereo not shown) [Compound 7],0.13,74 ± 3.2,,
COc1cccc(C2c3[nH]c4ccccc4c3CC3C(=O)N(c4ccccc4C(=O)NCC(=O)O)C(=O)N32)c1 (stereo not shown) [Compound 8],0.13,311 ± 37,,
O=C(O)c1ccccc1N1C(=O)C2Cc3c([nH]c4ccccc34)C(c3ccccc3)N2C1=O (stereo not shown) [Compound 9],0.14,452 ± 14,1410,
Cc1ccc(C2c3[nH]c4ccccc4c3CC3C(=O)N(c4ccccc4C(=O)O)C(=O)N32)cc1 (stereo not shown) [Compound 10],0.15,234 ± 75,729 ± 164,
Cc1cccc(C2c3[nH]c4ccccc4c3CC3C(=O)N(c4ccccc4C(=O)O)C(=O)N32)c1 (stereo not shown) [Compound 11],0.17,80 ± 5.8,177 ± 13,"CSP ∆δ ([2]; residue Arg305): 0.38 ppm; CSP ∆δ ([2]; residue Asn264): 0.36 ppm; CSP ∆δ ([2]; residue Asn308): 0.12 ppm; CSP ∆δ ([2]; residue Lys301): 0.1 ppm; TPR cochaperone association with Hsp90 complexes ([3]; added to HCT116 cell lysate, N = 1, qualitative): not; TPR cochaperone association with Hsp90 complexes ([3]; added to purified Hsp90 complexes, N = 1, preliminary, qualitative): reduce TPR cochaperone association; also recorded: may disrupt binding of Hop and another TPR cochaperone, PP5"
Cc1ccccc1C1c2[nH]c3ccccc3c2CC2C(=O)N(c3ccccc3C(=O)O)C(=O)N21 (stereo not shown) [Compound 12],0.17,94 ± 6.4,352 ± 39,
COc1cccc(C2c3[nH]c4ccccc4c3CC3C(=O)N(c4ccc(C(=O)O)cc4)C(=O)N32)c1 (stereo not shown) [Compound 13],0.12,1180,,drop in LANCE activity compared to 11 ([1]; carboxylic acid at R2 moved from ortho to para): more than tenfold drop in activity
Hop TPR2A (from UniProt P31948),,,,Kd [4]: 11 µM
